By Ki is commonly meant a dissociation constant, usually derived from enzyme kinetics or from competition with a known ligand. Low values mean a stronger hold on the target, high ones a looser hold on the target.

In BindingDB's records for doi:10.1007/s00213-002-1073-7 (WestfÄLische Wilhelms-Universit&Auml, 2002) one finds Ki data, which are given here for six compounds.

The target of test [1] is T1, Alpha-2B adrenergic receptor (Homo sapiens, UniProt P18089).
T1 sequence (P18089 whole entry): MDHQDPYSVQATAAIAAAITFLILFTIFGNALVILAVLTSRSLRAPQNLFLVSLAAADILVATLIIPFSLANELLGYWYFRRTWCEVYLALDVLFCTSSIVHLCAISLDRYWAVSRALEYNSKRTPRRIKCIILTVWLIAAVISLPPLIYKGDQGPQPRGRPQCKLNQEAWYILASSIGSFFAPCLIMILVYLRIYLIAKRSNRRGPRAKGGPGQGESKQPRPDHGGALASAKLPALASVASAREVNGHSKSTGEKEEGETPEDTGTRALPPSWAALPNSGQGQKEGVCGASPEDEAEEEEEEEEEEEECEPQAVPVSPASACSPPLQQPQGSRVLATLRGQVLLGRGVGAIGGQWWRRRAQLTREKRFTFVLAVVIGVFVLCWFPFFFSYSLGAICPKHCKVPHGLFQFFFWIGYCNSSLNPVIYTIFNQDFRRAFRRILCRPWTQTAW

The target in test [2] is T2, Muscarinic acetylcholine receptor M2 (Homo sapiens, UniProt P08172).
T2 sequence (P08172 whole entry): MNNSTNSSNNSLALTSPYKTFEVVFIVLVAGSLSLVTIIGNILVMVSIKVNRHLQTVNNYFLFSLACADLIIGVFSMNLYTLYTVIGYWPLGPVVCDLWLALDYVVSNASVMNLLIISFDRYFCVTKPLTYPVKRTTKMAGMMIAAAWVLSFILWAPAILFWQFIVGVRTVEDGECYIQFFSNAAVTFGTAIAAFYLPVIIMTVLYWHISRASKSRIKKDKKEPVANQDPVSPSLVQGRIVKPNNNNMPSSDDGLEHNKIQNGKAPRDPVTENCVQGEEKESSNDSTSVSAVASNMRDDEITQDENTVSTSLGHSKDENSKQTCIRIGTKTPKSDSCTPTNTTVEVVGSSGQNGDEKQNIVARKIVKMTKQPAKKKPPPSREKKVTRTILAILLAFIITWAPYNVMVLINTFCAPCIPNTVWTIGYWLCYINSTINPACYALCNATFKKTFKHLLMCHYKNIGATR

The target in test [3] is T3, 5-hydroxytryptamine receptor 1A (Homo sapiens, UniProt P08908).
T3 sequence (P08908 whole entry): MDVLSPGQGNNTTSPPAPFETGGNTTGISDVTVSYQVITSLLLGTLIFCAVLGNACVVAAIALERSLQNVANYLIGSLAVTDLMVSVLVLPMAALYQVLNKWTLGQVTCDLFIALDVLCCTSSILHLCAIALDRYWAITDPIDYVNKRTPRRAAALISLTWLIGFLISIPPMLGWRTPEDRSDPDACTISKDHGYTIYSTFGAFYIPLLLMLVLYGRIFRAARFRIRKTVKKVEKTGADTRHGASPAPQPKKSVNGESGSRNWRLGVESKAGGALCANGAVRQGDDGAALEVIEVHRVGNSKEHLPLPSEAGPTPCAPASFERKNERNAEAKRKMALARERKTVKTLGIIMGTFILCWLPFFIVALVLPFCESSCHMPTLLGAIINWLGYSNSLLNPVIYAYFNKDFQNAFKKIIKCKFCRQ

The target of test [4] is 5-hydroxytryptamine receptor 6 (Homo sapiens, UniProt P50406).
For the next test, the target named is D(3) dopamine receptor (Rattus norvegicus, UniProt P19020).
The target in test [5] is T4, 5-hydroxytryptamine receptor 3A (Homo sapiens, UniProt P46098).
T4 sequence (P46098 whole entry): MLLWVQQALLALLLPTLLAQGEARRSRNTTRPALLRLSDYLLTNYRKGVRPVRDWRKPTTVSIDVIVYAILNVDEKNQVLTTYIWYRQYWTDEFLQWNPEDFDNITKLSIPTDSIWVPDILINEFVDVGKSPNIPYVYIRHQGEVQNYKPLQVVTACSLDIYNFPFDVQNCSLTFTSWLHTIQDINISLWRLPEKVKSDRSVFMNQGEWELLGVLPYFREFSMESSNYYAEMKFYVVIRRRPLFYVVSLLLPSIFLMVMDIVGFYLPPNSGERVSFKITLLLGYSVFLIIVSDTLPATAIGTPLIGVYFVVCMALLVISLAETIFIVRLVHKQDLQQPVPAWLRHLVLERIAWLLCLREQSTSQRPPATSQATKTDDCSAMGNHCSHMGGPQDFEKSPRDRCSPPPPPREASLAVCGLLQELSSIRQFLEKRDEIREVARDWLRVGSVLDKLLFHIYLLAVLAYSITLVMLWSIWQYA

The target in test [6] is T5, Muscarinic acetylcholine receptor M4 (Homo sapiens, UniProt P08173).
T5 sequence (P08173 whole entry): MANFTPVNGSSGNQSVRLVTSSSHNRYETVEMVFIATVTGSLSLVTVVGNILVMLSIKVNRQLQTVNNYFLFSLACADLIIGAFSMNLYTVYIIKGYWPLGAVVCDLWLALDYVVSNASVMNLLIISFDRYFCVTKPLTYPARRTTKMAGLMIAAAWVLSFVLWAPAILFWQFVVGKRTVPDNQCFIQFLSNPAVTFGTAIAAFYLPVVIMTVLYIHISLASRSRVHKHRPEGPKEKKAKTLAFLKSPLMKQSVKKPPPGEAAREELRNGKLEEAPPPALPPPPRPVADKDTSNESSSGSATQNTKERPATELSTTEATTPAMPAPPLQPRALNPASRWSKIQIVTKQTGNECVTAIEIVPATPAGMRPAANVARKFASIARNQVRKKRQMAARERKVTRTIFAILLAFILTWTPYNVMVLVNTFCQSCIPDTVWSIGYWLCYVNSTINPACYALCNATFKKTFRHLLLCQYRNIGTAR

The target of the next test is Histamine H1 receptor (Rattus norvegicus, UniProt P31390).
For test [7], the target named is Muscarinic acetylcholine receptor M3 (Homo sapiens, UniProt P20309).
Test [8] has as its target Sodium-dependent dopamine transporter (Bos taurus, UniProt P27922).
For test [9], the target named is 5-hydroxytryptamine receptor 7 (Homo sapiens, UniProt P34969).
The target in test [10] is Kappa-type opioid receptor (Homo sapiens, UniProt P41145).
Kappa-type opioid receptor, sequence (P41145 whole entry): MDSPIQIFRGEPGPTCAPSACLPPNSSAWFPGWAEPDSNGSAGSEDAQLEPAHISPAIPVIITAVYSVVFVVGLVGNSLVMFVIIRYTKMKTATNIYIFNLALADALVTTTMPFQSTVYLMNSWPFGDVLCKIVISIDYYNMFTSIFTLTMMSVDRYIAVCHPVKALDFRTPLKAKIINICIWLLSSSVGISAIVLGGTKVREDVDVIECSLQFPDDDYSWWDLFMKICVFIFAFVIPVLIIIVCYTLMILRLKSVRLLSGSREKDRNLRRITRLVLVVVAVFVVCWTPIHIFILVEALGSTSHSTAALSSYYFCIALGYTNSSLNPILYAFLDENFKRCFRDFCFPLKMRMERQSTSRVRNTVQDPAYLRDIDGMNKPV

D(3) dopamine receptor, sequence (P19020 whole entry): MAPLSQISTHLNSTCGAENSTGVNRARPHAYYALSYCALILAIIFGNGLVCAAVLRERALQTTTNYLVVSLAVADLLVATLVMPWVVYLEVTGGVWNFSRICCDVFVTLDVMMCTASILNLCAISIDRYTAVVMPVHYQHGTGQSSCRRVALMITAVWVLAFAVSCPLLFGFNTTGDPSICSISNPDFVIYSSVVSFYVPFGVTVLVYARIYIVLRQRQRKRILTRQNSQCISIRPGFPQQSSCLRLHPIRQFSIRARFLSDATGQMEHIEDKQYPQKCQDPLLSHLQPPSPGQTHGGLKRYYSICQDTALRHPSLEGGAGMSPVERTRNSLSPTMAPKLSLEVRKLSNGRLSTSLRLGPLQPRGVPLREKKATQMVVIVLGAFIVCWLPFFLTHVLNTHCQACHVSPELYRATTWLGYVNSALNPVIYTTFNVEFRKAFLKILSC
Muscarinic acetylcholine receptor M3, sequence (P20309 whole entry): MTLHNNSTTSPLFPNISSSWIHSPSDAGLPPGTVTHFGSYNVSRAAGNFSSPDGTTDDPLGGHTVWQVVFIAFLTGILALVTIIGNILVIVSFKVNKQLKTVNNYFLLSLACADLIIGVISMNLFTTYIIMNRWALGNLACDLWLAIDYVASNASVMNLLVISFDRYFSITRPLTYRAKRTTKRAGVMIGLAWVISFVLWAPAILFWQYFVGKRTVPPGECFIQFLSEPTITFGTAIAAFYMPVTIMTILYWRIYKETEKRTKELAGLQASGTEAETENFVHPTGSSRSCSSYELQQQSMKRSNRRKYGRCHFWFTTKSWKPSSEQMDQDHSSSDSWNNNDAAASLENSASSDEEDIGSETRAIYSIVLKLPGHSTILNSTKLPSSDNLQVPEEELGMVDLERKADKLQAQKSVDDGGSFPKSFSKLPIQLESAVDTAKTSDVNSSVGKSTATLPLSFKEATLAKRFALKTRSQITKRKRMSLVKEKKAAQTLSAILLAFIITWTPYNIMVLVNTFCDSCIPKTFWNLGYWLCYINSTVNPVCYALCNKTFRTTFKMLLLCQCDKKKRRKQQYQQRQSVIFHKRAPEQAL
Sodium-dependent dopamine transporter, sequence (P27922 whole entry): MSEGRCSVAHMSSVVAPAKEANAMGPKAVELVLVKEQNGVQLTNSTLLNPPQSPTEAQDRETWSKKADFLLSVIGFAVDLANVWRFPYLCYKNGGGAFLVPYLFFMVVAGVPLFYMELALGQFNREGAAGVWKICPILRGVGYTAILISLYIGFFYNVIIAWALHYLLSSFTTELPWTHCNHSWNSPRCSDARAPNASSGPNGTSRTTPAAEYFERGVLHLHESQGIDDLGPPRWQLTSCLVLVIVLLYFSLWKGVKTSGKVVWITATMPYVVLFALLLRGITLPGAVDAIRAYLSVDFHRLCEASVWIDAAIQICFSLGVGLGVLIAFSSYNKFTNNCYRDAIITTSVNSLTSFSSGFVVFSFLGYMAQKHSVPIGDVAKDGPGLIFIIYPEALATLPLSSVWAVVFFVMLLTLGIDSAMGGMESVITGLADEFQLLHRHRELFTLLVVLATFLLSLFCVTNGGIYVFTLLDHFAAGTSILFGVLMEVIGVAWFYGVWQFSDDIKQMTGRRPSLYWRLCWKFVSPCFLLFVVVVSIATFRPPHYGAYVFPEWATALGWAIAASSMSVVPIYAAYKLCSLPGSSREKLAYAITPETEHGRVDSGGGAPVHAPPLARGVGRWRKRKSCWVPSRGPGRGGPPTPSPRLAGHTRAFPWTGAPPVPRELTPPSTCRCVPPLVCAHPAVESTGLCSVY
5-hydroxytryptamine receptor 6, sequence (P50406 whole entry): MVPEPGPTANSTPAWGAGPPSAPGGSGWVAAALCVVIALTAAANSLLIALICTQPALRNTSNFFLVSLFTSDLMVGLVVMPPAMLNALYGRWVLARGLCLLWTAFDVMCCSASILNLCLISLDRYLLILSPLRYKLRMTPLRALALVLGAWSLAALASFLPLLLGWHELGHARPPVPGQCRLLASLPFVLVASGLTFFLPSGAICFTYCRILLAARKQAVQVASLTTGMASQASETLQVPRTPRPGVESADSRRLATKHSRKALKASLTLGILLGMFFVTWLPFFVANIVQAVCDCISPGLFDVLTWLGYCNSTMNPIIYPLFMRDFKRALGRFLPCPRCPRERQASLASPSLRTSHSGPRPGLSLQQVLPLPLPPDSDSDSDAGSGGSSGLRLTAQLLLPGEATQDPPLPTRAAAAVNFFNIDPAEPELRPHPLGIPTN
5-hydroxytryptamine receptor 7, sequence (P34969 whole entry): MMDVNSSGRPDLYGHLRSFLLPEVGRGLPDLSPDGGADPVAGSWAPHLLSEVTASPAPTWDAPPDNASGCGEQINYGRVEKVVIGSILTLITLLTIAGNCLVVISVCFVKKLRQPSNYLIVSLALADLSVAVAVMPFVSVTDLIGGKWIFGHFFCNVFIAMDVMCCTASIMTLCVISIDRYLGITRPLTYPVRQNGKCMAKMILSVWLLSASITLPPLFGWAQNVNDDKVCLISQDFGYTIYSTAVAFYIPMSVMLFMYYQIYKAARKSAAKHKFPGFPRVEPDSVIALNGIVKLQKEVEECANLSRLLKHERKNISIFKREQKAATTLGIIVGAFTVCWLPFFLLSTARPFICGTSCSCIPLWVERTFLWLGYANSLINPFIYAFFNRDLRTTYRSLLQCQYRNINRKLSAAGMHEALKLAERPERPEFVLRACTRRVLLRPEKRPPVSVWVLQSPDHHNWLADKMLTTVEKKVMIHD
Histamine H1 receptor, sequence (P31390 whole entry): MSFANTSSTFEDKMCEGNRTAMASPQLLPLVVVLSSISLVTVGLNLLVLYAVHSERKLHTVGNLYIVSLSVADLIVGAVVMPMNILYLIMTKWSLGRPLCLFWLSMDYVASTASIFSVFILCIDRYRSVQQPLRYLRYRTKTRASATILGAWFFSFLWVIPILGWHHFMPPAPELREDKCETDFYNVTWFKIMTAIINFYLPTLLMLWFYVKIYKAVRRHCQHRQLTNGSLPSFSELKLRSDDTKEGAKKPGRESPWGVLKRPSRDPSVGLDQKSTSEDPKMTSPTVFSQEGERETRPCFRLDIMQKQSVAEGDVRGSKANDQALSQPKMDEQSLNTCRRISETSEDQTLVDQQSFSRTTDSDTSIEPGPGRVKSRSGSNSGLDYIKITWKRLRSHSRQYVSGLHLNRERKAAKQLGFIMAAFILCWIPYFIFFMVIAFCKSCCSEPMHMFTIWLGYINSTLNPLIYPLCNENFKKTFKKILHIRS

As for `O=c1cc(O)cc2oc(-c3ccc(O)c(-c4c(O)cc(O)c5c(=O)cc(-c6ccc(O)cc6)oc45)c3)cc(O)c1-2`, the inhibition constant Ki in test [1] is more than 10 µM; in test [2], more than 10 µM; in [3] it was more than 10 µM; in test [4], more than 10 µM; at D(3) dopamine receptor, 1.24 µM; in test [5], more than 10 µM. Also, the Ki is more than 10 µM in [6]; more than 10 µM on Histamine H1 receptor; more than 10 µM in test [7]; 0.877 µM in test [8]; more than 10 µM in [9]; more than 10 µM in test [10].
On to `CC(C)=CCC[C@]1(C)[C@@H](CC=C(C)C)C[C@]2(CC=C(C)C)C(=O)C(CC=C(C)C)C(=O)[C@]1(C(=O)C(C)C)C2=O` (some centres not stated), for which the Ki (in test [1]; in test [2]; in test [3]; in test [4]; on D(3) dopamine receptor; in test [5]) was more than 10 µM in each case. In addition, the Ki (in test [6]; on Histamine H1 receptor; in [7]; in [8]; in [9]; in [10]) was more than 10 µM in each case.
Take `C[C@@H]1O[C@@H](Oc2c(-c3ccc(O)c(O)c3)oc3cc(O)cc(=O)c-3c2O)[C@H](O)[C@H](O)[C@H]1O`: the Ki (in test [1]; in test [2]; in test [3]; in test [4]; on D(3) dopamine receptor; in test [5]) was more than 10 µM each time. Also, the Ki (in [6]; at Histamine H1 receptor; in test [7]; in [8]; in [9]; in test [10]) was more than 10 µM each time.
`O=c1c(O)c(-c2ccc(O)c(O)c2)oc2cc(O)cc(O)c12` [2-(3,4-dihydroxyphenyl)-3,5,7-trihydroxy-chromone;hydrate]: the Ki (in test [1]; in test [2]; in test [3]; in [4]; at D(3) dopamine receptor; in test [5]) was more than 10 µM each time. Besides, the inhibitory constant (Ki) (in test [6]; on Histamine H1 receptor; in test [7]; in [8]; in [9]; in test [10]) was more than 10 µM in each case.
With `C[C@@H]1O[C@@H](OC[C@H]2O[C@@H](Oc3c(-c4ccc(O)c(O)c4)oc4cc(O)cc(O)c4c3=O)[C@H](O)[C@@H](O)[C@@H]2O)[C@H](O)[C@H](O)[C@H]1O` [3-Rhamnoglucosylquercetin], the Ki (in [1]; in [2]; in [3]; in test [4]; on D(3) dopamine receptor; in test [5]) was more than 10 µM in each case. In addition, the Ki (in test [6]; at Histamine H1 receptor; in test [7]; in test [8]; in test [9]; in test [10]) was more than 10 µM each time.
For the compound `O=c1cc(O)cc2oc(-c3ccc(O)c(O)c3)c(OC3OC(CO)C(O)C(O)C3O)c(O)c1-2` (configuration not stated) [NSC_5318390], the Ki (in test [1]; in test [2]; in [3]; in test [4]; at D(3) dopamine receptor; in test [5]) was more than 10 µM throughout. Also, the Ki (in test [6]; at Histamine H1 receptor; in test [7]; in test [8]; in test [9]; in test [10]) was more than 10 µM in each case.
